According to ChEMBL document CHEMBL1201862, “PubChem BioAssay data set” (2004):
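Cultured in 96-well plates, cells were exposed to test compound for 48 hours across five concentrations. GI50: concentration for 50% inhibition of growth.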 Calls of active or inactive are those of the source. Cut-off read from the data, not from the text of the source: active = GI50 up to about 1.1 µM and inactive = higher.

Legend:
Test in all cases: NCI tumour cell line growth inhibition, 48 h
COLO 205 = test system: COLO 205
SF-295 = test system: SF-295
SNB-75 = test system: SNB-75
SN12C = test system: SN12C
BT-549 = test system: BT-549
786-0 = test system: 786-0
HCT-15 = test system: HCT-15
TK-10 = test system: TK-10
OVCAR-4 = test system: OVCAR-4
MCF7 = test system: MCF7
CCRF-CEM = test system: CCRF-CEM
HT-29 = test system: HT-29
MDA-N = test system: MDA-N
T47D = test system: T47D
EKVX = test system: EKVX
HL-60 = test system: HL-60
Malme-3M = test system: Malme-3M
CAKI-1 = test system: CAKI-1
HCT-116 = test system: HCT-116
UO-31 = test system: UO-31

Structure (SMILES)	GI50 (COLO 205)	GI50 (SF-295)	GI50 (SNB-75)	GI50 (SN12C)	GI50 (BT-549)	GI50 (786-0)	GI50 (HCT-15)	GI50 (TK-10)	GI50 (OVCAR-4)	GI50 (MCF7)	GI50 (CCRF-CEM)	GI50 (HT-29)	GI50 (MDA-N)	GI50 (T47D)	GI50 (EKVX)	GI50 (HL-60)	GI50 (Malme-3M)	GI50 (CAKI-1)	GI50 (HCT-116)	GI50 (UO-31)
CC(C)(C)SC1=CCC[C@@H](P(=O)(c2ccccc2)c2ccccc2)[C@@H]2CCC[C@@H]12	18 µM (inactive)	15.1 µM (inactive)	11.8 µM (inactive)	15.7 µM (inactive)	17.8 µM (inactive)	16.7 µM (inactive)	16.6 µM	17.5 µM (inactive)	14.3 µM (inactive)	16.2 µM (inactive)	24.6 µM (inactive)	14.2 µM (inactive)	16.1 µM (inactive)	14 µM (inactive)	18.6 µM (inactive)	20 µM (inactive)	19.6 µM (inactive)	13.8 µM (inactive)	14.3 µM (inactive)	16.5 µM (inactive)
S=C1Nc2ccccc2SC1c1ccccc1 (stereo not drawn)	> 100 µM (inactive)	16.4 µM (inactive)	23.6 µM (inactive)	> 100 µM (inactive)	> 100 µM (inactive)	34.9 µM (inactive)	> 100 µM	56.6 µM (inactive)	46 µM (inactive)	> 100 µM (inactive)	2.96 µM (inactive)	> 100 µM (inactive)	> 100 µM (inactive)	72.6 µM (inactive)	> 100 µM (inactive)	5.22 µM (inactive)	92.3 µM (inactive)	> 100 µM (inactive)	> 100 µM (inactive)	> 100 µM (inactive)
CC(C)/C(Cl)=N\OC(=O)Nc1cccc(F)c1	2.44 µM (inactive)	32.9 µM (inactive)	22.6 µM (inactive)	16.5 µM (inactive)	2.66 µM (inactive)	16 µM (inactive)	15.8 µM	14.8 µM (inactive)	11.7 µM (inactive)	11 µM (inactive)	1.9 µM (inactive)	18.3 µM (inactive)	15.4 µM (inactive)	24.8 µM (inactive)	16.7 µM (inactive)	1.96 µM (inactive)	6.24 µM (inactive)	16 µM (inactive)	16.1 µM (inactive)	18.6 µM (inactive)
O=C(O)[C@@H]1CCC(=O)N1C(c1ccc2c(c1)OCO2)c1ccc2c(c1)OCO2	> 100 µM (inactive)	> 100 µM (inactive)	> 100 µM (inactive)	> 100 µM (inactive)	> 100 µM (inactive)	> 100 µM (inactive)	> 100 µM	> 100 µM (inactive)	35.2 µM (inactive)	> 100 µM (inactive)	> 10 µM (inactive)	> 100 µM (inactive)	> 100 µM (inactive)	> 100 µM (inactive)	> 100 µM (inactive)	> 100 µM (inactive)	> 100 µM (inactive)	> 100 µM (inactive)	> 100 µM (inactive)	> 100 µM (inactive)
CN(C)c1ccc2c(c1)oc(=O)c1ccccc12	12.2 µM (inactive)	19.1 µM (inactive)	17.8 µM (inactive)	12.8 µM (inactive)	3.44 µM (inactive)	11.9 µM (inactive)	12.6 µM	19.7 µM (inactive)	12.3 µM (inactive)	5.08 µM (inactive)	4.24 µM (inactive)	10.4 µM (inactive)	6.27 µM (inactive)	12.2 µM (inactive)	16.7 µM (inactive)	3.69 µM (inactive)	11.8 µM (inactive)	11.4 µM (inactive)	12.3 µM (inactive)	–
CCCCCCCCCCCCCCCCCCNC(=S)NC=C1C(=O)c2ccccc2C1=O	15.7 µM (inactive)	13.6 µM (inactive)	–	16 µM (inactive)	15.7 µM (inactive)	9.12 µM (inactive)	10.2 µM	16.6 µM (inactive)	–	12 µM (inactive)	5.02 µM (inactive)	11.5 µM (inactive)	16 µM (inactive)	15.8 µM (inactive)	13 µM (inactive)	3.87 µM (inactive)	14.7 µM (inactive)	15.5 µM (inactive)	4.08 µM (inactive)	10.3 µM (inactive)
O=c1[nH]nc(Cc2ccc(Cl)cc2)n1/N=C/c1ccco1	> 100 µM (inactive)	46.6 µM (inactive)	28.6 µM (inactive)	> 100 µM (inactive)	40.6 µM (inactive)	30.4 µM (inactive)	> 100 µM	–	> 100 µM (inactive)	3.15 µM (inactive)	> 100 µM (inactive)	33.1 µM (inactive)	> 100 µM (inactive)	> 100 µM (inactive)	> 100 µM (inactive)	> 100 µM (inactive)	> 100 µM (inactive)	> 100 µM (inactive)	93.1 µM (inactive)	> 100 µM (inactive)
C[C@@H]1C[C@H](O)[C@]2(O)O[C@@H]3C[C@@]4(C=O)[C@@H](CC=C5[C@@H]4CC[C@]4(C)[C@@H](C6=CC(=O)OC6)CC[C@]54O)C[C@H]3O[C@@H]2O1	0.0984 µM (active)	< 0.0191 µM (active)	0.112 µM (active)	< 0.01 µM (active)	< 0.015 µM (active)	0.0124 µM (active)	0.0175 µM	< 0.01 µM (active)	< 0.0106 µM (active)	< 0.0188 µM (active)	< 0.01 µM (active)	< 0.0212 µM (active)	0.042 µM (active)	0.0218 µM (active)	< 0.01 µM (active)	0.0171 µM (active)	< 0.01 µM (active)	< 0.0125 µM (active)	0.0143 µM (active)	< 0.0247 µM (active)
COc1cc(OC(=O)c2ccccc2)cc2c1C(=O)C=CC2=O	16.2 µM (inactive)	17.3 µM (inactive)	22.6 µM (inactive)	19.5 µM (inactive)	15.8 µM (inactive)	8.39 µM (inactive)	11.9 µM	17.9 µM (inactive)	5.4 µM (inactive)	11 µM (inactive)	0.543 µM (active)	14.1 µM (inactive)	6.44 µM (inactive)	1.89 µM (inactive)	13.2 µM (inactive)	0.556 µM (active)	15.3 µM (inactive)	20.6 µM (inactive)	6.35 µM (inactive)	11.2 µM (inactive)
COC(=O)C1(Cc2cccc(C)c2)Cc2c(C)cccc2C1=O (stereo not drawn)	37.2 µM (inactive)	38.2 µM (inactive)	43.3 µM (inactive)	44.9 µM (inactive)	56.1 µM (inactive)	93.8 µM (inactive)	32.1 µM	89.3 µM (inactive)	41.7 µM (inactive)	33.7 µM (inactive)	61.8 µM (inactive)	29.6 µM (inactive)	14.3 µM (inactive)	28.4 µM (inactive)	29.1 µM (inactive)	> 100 µM (inactive)	33.9 µM (inactive)	64.9 µM (inactive)	36.4 µM (inactive)	42.6 µM (inactive)
c1ccc2c(CC3NCCN3)cccc2c1	> 100 µM (inactive)	> 100 µM (inactive)	> 100 µM (inactive)	> 100 µM (inactive)	> 100 µM (inactive)	> 100 µM (inactive)	> 100 µM	> 100 µM (inactive)	> 100 µM (inactive)	> 100 µM (inactive)	> 100 µM (inactive)	> 100 µM (inactive)	> 100 µM (inactive)	> 100 µM (inactive)	> 100 µM (inactive)	> 100 µM (inactive)	> 100 µM (inactive)	> 100 µM (inactive)	> 100 µM (inactive)	–
Clc1cc(Cl)nc(Nc2ccc3c(c2)CCC3)n1	24 µM (inactive)	48.5 µM (inactive)	–	45.4 µM (inactive)	48.6 µM (inactive)	39.1 µM (inactive)	33.7 µM	18.1 µM (inactive)	61.2 µM (inactive)	20.5 µM (inactive)	30.3 µM (inactive)	22 µM (inactive)	40.1 µM (inactive)	69.3 µM (inactive)	20 µM (inactive)	36.7 µM (inactive)	28.6 µM (inactive)	28.2 µM (inactive)	28.6 µM (inactive)	41.4 µM (inactive)
CC(=O)O[C@H]1CCc2c(cc(N)c3c2C(=O)C[C@]2(C)C([C@H](C)CCCC(C)C)CCC32C)C1(C)C (stereo partly drawn)	> 100 µM (inactive)	> 100 µM (inactive)	> 100 µM (inactive)	> 100 µM (inactive)	> 100 µM (inactive)	> 100 µM (inactive)	> 100 µM	> 100 µM (inactive)	92.7 µM (inactive)	57.9 µM (inactive)	> 100 µM (inactive)	42.2 µM (inactive)	> 100 µM (inactive)	> 100 µM (inactive)	> 100 µM (inactive)	66.5 µM (inactive)	> 100 µM (inactive)	> 100 µM (inactive)	89.7 µM (inactive)	> 100 µM (inactive)
CN(C)C(=O)Oc1ccc[n+](C)c1 [PYRIDOSTIGMINE BROMIDE]	> 100 µM (inactive)	> 100 µM (inactive)	> 100 µM (inactive)	> 100 µM (inactive)	> 100 µM (inactive)	> 100 µM (inactive)	> 100 µM	> 100 µM (inactive)	> 100 µM (inactive)	> 100 µM (inactive)	–	> 100 µM (inactive)	> 100 µM (inactive)	> 100 µM (inactive)	> 100 µM (inactive)	> 100 µM (inactive)	> 100 µM (inactive)	> 100 µM (inactive)	> 100 µM (inactive)	> 100 µM (inactive)
